Data on six compounds can be found in ChEMBL document CHEMBL1145418, “Cerebrosides and tocopherol trimers from the seeds of Euryale ferox” (J Nat Prod, 2007).

Data set [1] can be described thus: (§1) Toxicity against brine shrimp after 24 hr by brine shrimp lethality test. Format: organism-based. Particulars: artemia, in vivo.
The test system of the next data set is Artemia. The description is as §1. Format: organism-based. Particulars: in vivo, 24 h.

Broadly, the LC50 is the concentration lethal to half of the exposed cells or organisms. A high value points to lower toxicity. In turn, `CCCCCCC/C=C/CC/C=C/[C@@H](O)[C@H](CO[C@@H]1O[C@H](CO)[C@@H](O)[C@H](O)[C@H]1O)NC(=O)[C@H](O)CCCCCCCCCCCCCCCCCCCC` gave an LC50 at 24 h in data set [1] of 170 µM.
Still for that read-out and setting: for `CCCCCCC/C=C/CC/C=C/[C@@H](O)[C@H](CO[C@@H]1O[C@H](CO)[C@@H](O)[C@H](O)[C@H]1O)NC(=O)[C@H](O)CCCCCCCCCCCCCCCCCCCCCC` the value was 200 µM.
Take `CC1=C(C)[C@@]23Oc4c(C)c(C)c5c(c4C[C@@]2(CC[C@@](C)(CCCC(C)CCCC(C)CCCC(C)C)O3)C2(Cc3c4c(c(C)c(C)c3O2)O[C@](C)(CCCC(C)CCCC(C)CCCC(C)C)CC4)C1=O)CC[C@@](C)(CCCC(C)CCCC(C)CCCC(C)C)O5` (stereo partly specified) [FEROTOCOTRIMER C]: the Activity result in the data set with Artemia was “Non-toxic”.
On the same count and under the same terms, the same measure for `CC1=C(C)[C@]23Oc4c(C)c(C)c5c(c4C[C@]2(CC[C@@](C)(CCCC(C)CCCC(C)CCCC(C)C)O3)C2(Cc3c4c(c(C)c(C)c3O2)O[C@](C)(CCCC(C)CCCC(C)CCCC(C)C)CC4)C1=O)CC[C@@](C)(CCCC(C)CCCC(C)CCCC(C)C)O5` (stereo partly specified) [FEROTOCOTRIMER D]: “Non-toxic”; for `CC1=C(C)[C@]23Oc4c(C)c(C)c5c(c4C[C@]2(CC[C@@](C)(CCCC(C)CCCC(C)CCCC(C)C)O3)C2(CCc3c4c(c(C)c(C)c3O2)O[C@](C)(CCCC(C)CCCC(C)CCCC(C)C)CC4)C1=O)CC[C@@](C)(CCCC(C)CCCC(C)CCCC(C)C)O5` (stereo partly specified) [TOCOPHEROL TRIMER IVA]: “Non-toxic”; for `CC1=C(C)[C@@]23Oc4c(C)c(C)c5c(c4C[C@@]2(CC[C@@](C)(CCCC(C)CCCC(C)CCCC(C)C)O3)C2(CCc3c4c(c(C)c(C)c3O2)O[C@](C)(CCCC(C)CCCC(C)CCCC(C)C)CC4)C1=O)CC[C@@](C)(CCCC(C)CCCC(C)CCCC(C)C)O5` (stereo partly specified) [TOCOPHEROL TRIMER IVB]: “Non-toxic”.
